Data published in patent US9211310B2, “Use of a Chinese medicine composition in preparing medicaments for treating secondary prevention of myocardial infarction” (TASLY PHARMACEUTICAL GROUP CO., LTD, priority 2010, dated 2015).

System: patients after acute myocardial infarction
Experiment: Life quality, Seattle Angina Questionnaire (SAQ), same clinical trial
Format: in vivo, human
From the text: 3508 patients who were in accordance with the diagnostic standards of AMI for 28 days to 2 years and differentiated as Qi deficiency and blood stagnation syndrome by TCM were studied. 0.5 g Chinese medicine composition prepared by the method of EXAMPLE 1 (Coded as QSYQ) was administrated half an hour after meal, 3 times per day.
There were 19 questions in the Seattle angina questionnaire (SAQ), including 5 parts: physical limitation (PL), anginal stability (AS), anginal frequency (AF), treatment satisfaction (TS) and disease perception (DP). After being given necessary explanation by doctors, the questions were answered independently by patients.
They included the overall survival time, angina pectoris score, TCM symptom score and life quality score, where angina pectoris score, TCM symptom score and life quality score were evaluated at randomization, in 1st, 3rd, 6th, 9th, 12th month after treatment and 18th month after follow-up.
All evaluation results of SAQ were described during the period of observation, and Wilcoxon rank sum test was used for inter-group comparison.
The evaluation results in the SAQ were depicted in different observations, and inter-group comparison was tested by Wilcoxon Rank-sum test.

Compound: CC(=O)Oc1ccccc1C(=O)O [Control group, aspirine]
- SAQ 3rd question: ≧4 times per day, cases (3 months after treatment, PP): 6
- SAQ Question 1-3: Mildly limited, number of patients (3 months after treatment, PP): 81
- SAQ Question 1-3: Mildly limited, percent of patients (3 months after treatment, PP): (5.51%)
- SAQ Question 1-3: Moderately limited, number of patients (3 months after treatment, PP): 16
- SAQ Question 1-3: Moderately limited, percent of patients (3 months after treatment, PP): (1.09%)
- SAQ Question 1-3: Not limited, number of patients (3 months after treatment, PP): 1103
- SAQ Question 1-3: Not limited, percent of patients (3 months after treatment, PP): (75.03%)
- SAQ Question 1-3: Other reason, number of patients (3 months after treatment, PP): 8
- SAQ Question 1-3: Other reason, percent of patients (3 months after treatment, PP): (0.54%)
- SAQ Question 1-3: Severely limited, number of patients (3 months after treatment, PP): 5
- SAQ Question 1-3: Severely limited, percent of patients (3 months after treatment, PP): (0.34%)
- SAQ Question 1-3: Slightly limited, number of patients (3 months after treatment, PP): 257
- SAQ Question 1-3: Slightly limited, percent of patients (3 months after treatment, PP): (17.48%)
- SAQ Question 1-4: Mildly limited, number of patients (3 months after treatment, PP): 278
- SAQ Question 1-4: Mildly limited, percent of patients (3 months after treatment, PP): (18.95%)
- SAQ Question 1-4: Moderately limited, number of patients (3 months after treatment, PP): 105
- SAQ Question 1-4: Moderately limited, percent of patients (3 months after treatment, PP): (7.16%)
- SAQ Question 1-4: Not limited, number of patients (3 months after treatment, PP): 559
- SAQ Question 1-4: Not limited, percent of patients (3 months after treatment, PP): (38.10%)
- SAQ Question 1-4: Other limited, number of patients (3 months after treatment, PP): 11
- SAQ Question 1-4: Other limited, percent of patients (3 months after treatment, PP): (0.75%)
- SAQ Question 1-4: Severely limited, number of patients (3 months after treatment, PP): 22
- SAQ Question 1-4: Severely limited, percent of patients (3 months after treatment, PP): (1.50%)
- SAQ Question 1-4: Slightly limited, number of patients (3 months after treatment, PP): 492
- SAQ Question 1-4: Slightly limited, percent of patients (3 months after treatment, PP): (33.54%)
- SAQ Question 1-5: Mildly limited, number of patients (3 months after treatment, PP): 268
- SAQ Question 1-5: Mildly limited, percent of patients (3 months after treatment, PP): (18.27%)
- SAQ Question 1-5: Moderately limited, number of patients (3 months after treatment, PP): 137
- SAQ Question 1-5: Moderately limited, percent of patients (3 months after treatment, PP): (9.34%)
- SAQ Question 1-5: Not limited, number of patients (3 months after treatment, PP): 594
- SAQ Question 1-5: Not limited, percent of patients (3 months after treatment, PP): (40.49%)
- SAQ Question 1-5: Other reasons, number of patients (3 months after treatment, PP): 11
- SAQ Question 1-5: Other reasons, percent of patients (3 months after treatment, PP): (0.75%)
- SAQ Question 1-5: Severely limited, number of patients (3 months after treatment, PP): 16
- SAQ Question 1-5: Severely limited, percent of patients (3 months after treatment, PP): (1.09%)
- SAQ Question 1-5: Slightly limited, number of patients (3 months after treatment, PP): 441
- SAQ Question 1-5: Slightly limited, percent of patients (3 months after treatment, PP): (30.06%)
- SAQ Question 1-9: Mildly limited, % of cases (3 months after treatment, PP): (18.45%)
- SAQ Question 1-9: Mildly limited, cases (3 months after treatment, PP): 264
- SAQ Question 1-9: Moderately limited, % of cases (3 months after treatment, PP): (20.48%)
- SAQ Question 1-9: Moderately limited, cases (3 months after treatment, PP): 293
- SAQ Question 1-9: Not limited, % of cases (3 months after treatment, PP): (3.70%)
- SAQ Question 1-9: Not limited, cases (3 months after treatment, PP): 53
- SAQ Question 1-9: Other reaons, % of cases (3 months after treatment, PP): (6.08%)
- SAQ Question 1-9: Other reaons, cases (3 months after treatment, PP): 87
- SAQ Question 1-9: Severely limited, % of cases (3 months after treatment, PP): (39.41%)
- SAQ Question 1-9: Severely limited, cases (3 months after treatment, PP): 564
- SAQ Question 1-9: Slightly limited, % of cases (3 months after treatment, PP): (11.88%)
- SAQ Question 1-9: Slightly limited, cases (3 months after treatment, PP): 170
- SAQ 2nd question: 6, % of cases (6 months after treatment, FAS): (0.00%)
- SAQ 2nd question: 6, cases (6 months after treatment, FAS): 0
- SAQ 2nd question: Clearly increased, % of cases (6 months after treatment, FAS): (0.98%)
- SAQ 2nd question: Clearly increased, cases (6 months after treatment, FAS): 17
- SAQ 2nd question: Clearly reduced, % of cases (6 months after treatment, FAS): (22.98%)
- SAQ 2nd question: Clearly reduced, cases (6 months after treatment, FAS): 400
- SAQ 2nd question: Same, % of cases (6 months after treatment, FAS): (37.33%)
- SAQ 2nd question: Same, cases (6 months after treatment, FAS): 650
- SAQ 2nd question: Slightly increased, % of cases (6 months after treatment, FAS): (3.68%)
- SAQ 2nd question: Slightly increased, cases (6 months after treatment, FAS): 64
- SAQ 2nd question: Slightly reduced, % of cases (6 months after treatment, FAS): (35.04%)
- SAQ 2nd question: Slightly reduced, cases (6 months after treatment, FAS): 610
- SAQ 3rd question: 1-2 times per week, % of cases (6 months after treatment, FAS): (35.04%)
- SAQ 3rd question: 1-2 times per week, cases (6 months after treatment, FAS): 610
- SAQ 3rd question: 1-3 times per day, % of cases (6 months after treatment, FAS): (3.68%)
- SAQ 3rd question: 1-3 times per day, cases (6 months after treatment, FAS): 64
- SAQ 3rd question: <1 time per week, % of cases (6 months after treatment, FAS): (22.98%)
- SAQ 3rd question: <1 time per week, cases (6 months after treatment, FAS): 400
- SAQ 3rd question: No onset, % of cases (6 months after treatment, FAS): (0.00%)
- SAQ 3rd question: No onset, cases (6 months after treatment, FAS): 0
- SAQ 3rd question: ≧3 times per week, % of cases (6 months after treatment, FAS): (37.33%)
- SAQ 3rd question: ≧3 times per week, cases (6 months after treatment, FAS): 650
- SAQ 3rd question: ≧4 times per day, % of cases (6 months after treatment, FAS): (0.98%)
- SAQ 3rd question: ≧4 times per day, cases (6 months after treatment, FAS): 17
- SAQ Question 1-3: Mildly limited, number of patients (6 months after treatment, FAS): 86
- SAQ Question 1-3: Mildly limited, percent of patients (6 months after treatment, FAS): (4.93%)
- SAQ Question 1-3: Moderately limited, number of patients (6 months after treatment, FAS): 20
- SAQ Question 1-3: Moderately limited, percent of patients (6 months after treatment, FAS): (1.15%)
